Experimental findings from patent publication EP3939664A1 (priority 2020, dated 2022) are described below.

Data set [1] has as its system SARS-CoV-2. The data set can be described thus: Cell monolayer protection assay (crystal violet staining of virus-induced cell death). As to conditions: for minimal effective concentration: Severe acute respiratory syndrome coronavirus 2, Vero C1008, minimum compound concentration protecting Vero-E6 cell monolayer from virus induced cell death, read-out: PC Min; for minimal effective concentration / PC Max: 72 hours, dilutions from 50µM to 780nM tested; for PC Max: maximum compound concentration protecting Vero-E6 cell monolayer from virus induced cell death. It is filed as cell-based, SARS-CoV-2 stock strain NL/2020. The arrangement: PC Max: unit: uM.

In data set [2] the test system is SARS-CoV-2. The data set can be described thus: Relative viral RNA content by real time qPCR. As to conditions: for activity at 15 µM: Severe acute respiratory syndrome coronavirus 2, Vero C1008, 15µM compound, viral RNA by qPCR, relative to cells treated only with vehicle (DMSO). The class given is cell-based.
Data set [3] relates to hCoV-229E-GFP virus (Human coronavirus 229E expressing Green Fluorescent Protein). Description: microbe, parasite or virus in culture. The class given is cell-based. To be noted: Huh7-Lunet#3 cells, 72 hours at 33°C, read-out: reduction of hCoV-229E-GFP propagation.
Data set [4] in a line: in vitro. As to conditions: human, huh7-lunet#3 cells.

`CCc1ccc(-c2ccc(-c3cc(C(=O)O)c4ccccc4n3)cc2)cc1` [Example 19, 2-(4'-ethyl-[1,1'-biphenyl]-4-yl)quinoline-4-carboxylic acid]: in data set [1], the minimal effective concentration was 50 µM and the “PC Max” value is on record as 50.
As to `O=C(O)c1cc(-c2ccc(-c3cccc(OC(F)(F)F)c3)cc2)nc2ccccc12` [Example 24, 2-(3'-(trifluoromethoxy)-[1,1'-biphenyl]-4-yl)quinoline-4-carboxylic acid], in data set [1], the minimal effective concentration was 50 µM and the “PC Max” value was determined as 50.
For the compound `COc1ccc(-c2cc(C(=O)O)c3cccc(-c4ccc(C(C)(C)C)cc4)c3n2)cc1` [Example 44, 8-(4-(tert-butyl)phenyl)-2-(4-methoxyphenyl)quinoline-4-carboxylic acid], in data set [2], the “viral RNA levels by qPCR (result in words)” value (shortened to “viral RNA levels by qPCR”) is “virtually undetectable levels” and the activity at 15 µM is 0.01%. In data set [1], the minimal effective concentration worked out at 12.5 µM and the “PC Max” value is recorded as 50.
With `COc1ccc(-c2cc(C(=O)O)c3cc(-c4ccc(C(C)(C)C)cc4)ccc3n2)cc1` [Example 4, 6-(4-(tert-butyl)phenyl)-2-(4-methoxyphenyl)quinoline-4-carboxylic acid], the inhibition at 10 µM in data set [3] stood at 74%. Further, in data set [4], the viability at 72 h, 10 µM is 107%. Besides, in data set [1], the minimal effective concentration is 50 µM and the “PC Max” value is on record as 50.
Take `COc1ccc(-c2cc(C(=O)O)c3ccc(-c4ccc(C(C)(C)C)cc4)cc3n2)cc1` [Example 34, 7-(4-(tert-butyl)phenyl)-2-(4-methoxyphenyl)quinoline-4-carboxylic acid]: in data set [1], the minimal effective concentration stood at 50 µM and the “PC Max” value came out at 50.
For `COc1ccc(-c2cc(C(=O)O)c3cccc(-c4ccc(Cl)c(Cl)c4)c3n2)cc1` [Example 46, 8-(3,4-dichlorophenyl)-2-(4-methoxyphenyl)quinoline-4-carboxylic acid] the same measures were 50 µM and 50.
The matching figures for `COc1ccc(-c2cc(C(=O)O)c3cccc(-c4cccc(OC(F)(F)F)c4)c3n2)cc1` [Example 47, 2-(4-methoxyphenyl)-8-(3-(trifluoromethoxy)phenyl)quinoline-4-carboxylic acid]: 50 µM and 50.
For `CCc1ccc(-c2cccc3c(C(=O)O)cc(-c4ccc(OC)cc4)nc23)cc1` [Example 42, 8-(4-ethylphenyl)-2-(4-methoxyphenyl)quinoline-4-carboxylic acid] the same measures were 50 µM and 50.
Consider `O=C(O)c1cc(-c2ccccc2)nc2ccc(-c3ccc(Cl)c(Cl)c3)cc12` [Example 16, 6-(3,4-dichlorophenyl)-2-phenylquinoline-4-carboxylic acid], for which, in data set [1], the minimal effective concentration was found to be 50 µM and the “PC Max” value is reported as 50.
In the case of `CCc1ccc(-c2ccc3nc(-c4ccccc4)cc(C(=O)O)c3c2)cc1` [Example 12, 6-(4-ethylphenyl)-2-phenylquinoline-4-carboxylic acid], in data set [1], the minimal effective concentration is 50 µM and the “PC Max” value turned out to be 50.
In the case of `O=C(O)c1cc(-c2ccc(-c3ccc(Cl)c(Cl)c3)cc2)nc2ccccc12` [Example 23, 2-(3',4'-dichloro-[1,1'-biphenyl]-4-yl)quinoline-4-carboxylic acid], in data set [1], the minimal effective concentration was 50 µM and the “PC Max” value was found to be 50.
Regarding `CCCCc1ccc(-c2ccc3nc(-c4ccc(OC)cc4)cc(C(=O)O)c3c2)cc1` [Example 3, 6-(4-butylphenyl)-2-(4-methoxyphenyl)quinoline-4-carboxylic acid], in data set [1], the minimal effective concentration was found to be 50 µM and the “PC Max” value was 50.
For `CC(C)(C)c1ccc(-c2ccc3nc(-c4ccccc4)cc(C(=O)O)c3c2)cc1` [Example 14, 6-(4-(tert-butyl)phenyl)-2-phenylquinoline-4-carboxylic acid], in data set [1], the minimal effective concentration turned out to be 50 µM and the “PC Max” value is listed as 50.
For `CCCCc1ccc(-c2ccc(-c3cc(C(=O)O)c4ccccc4n3)cc2)cc1` [Example 20, 2-(4'-butyl-[1,1'-biphenyl]-4-yl)quinoline-4-carboxylic acid], in data set [2], the “viral RNA levels by qPCR” value is reported as “virtually undetectable levels” and the activity at 15 µM was 0.001%. Besides, in data set [1], the minimal effective concentration was determined as 12.5 µM and the “PC Max” value was 50.
As to `CC(C)(C)c1ccc(-c2ccc(-c3cc(C(=O)O)c4ccccc4n3)cc2)cc1` [Example 21, 2-(4'-(tert-butyl)-[1,1'-biphenyl]-4-yl)quinoline-4-carboxylic acid], in data set [2], the “viral RNA levels by qPCR” value is “virtually undetectable levels” and the activity at 15 µM came to 1e-05%. Moreover, in data set [1] (Figure 1, 0.78-50µM), the “protective activity against SARS-CoV-2 (result in words)” value was “comparable efficacy to remdesivir”. In addition, in data set [1], the minimal effective concentration was determined as 3.12 µM and the “PC Max” value stood at 50.
Consider `CC(C)(C)c1ccc(-c2cccc(-c3cc(C(=O)O)c4ccccc4n3)c2)cc1` [Example 28, 2-(4'-(tert-butyl)-[1,1'-biphenyl]-3-yl)quinoline-4-carboxylic acid], for which, in data set [1], the minimal effective concentration was found to be 25 µM and the “PC Max” value stood at 50.
For `CCCCc1ccc(-c2ccc3c(C(=O)O)cc(-c4ccc(OC)cc4)nc3c2)cc1` [Example 33, 7-(4-butylphenyl)-2-(4-methoxyphenyl)quinoline-4-carboxylic acid], in data set [1], the minimal effective concentration stood at 50 µM and the “PC Max” value came to 50.
For the compound `CCC(CC)COC(=O)[C@H](C)N[P@](=O)(OC[C@H]1O[C@@](C#N)(c2ccc3c(N)ncnn23)[C@H](O)[C@@H]1O)Oc1ccccc1` [Remdesevir, remdesivir, reference compound], in data set [1], the minimal effective concentration came out at 0.78 µM and the “PC Max” value amounted to 50.
The matching figures for `CCCCc1ccc(-c2cccc(-c3cc(C(=O)O)c4ccccc4n3)c2)cc1` [Example 27, 2-(4'-butyl-[1,1'-biphenyl]-3-yl)quinoline-4-carboxylic acid]: 25 µM and 50.
The matching figures for `CCCOc1ccc(-c2cccc3c(C(=O)O)cc(-c4ccc(OC)cc4)nc23)cc1` [Example 48, 2-(4-methoxyphenyl)-8-(4-propoxyphenyl)quinoline-4-carboxylic acid]: 50 µM and 50.
